Source: patent publication US9340533B2, “1,4-benzothiazepine-1-oxide derivative and pharmaceutical composition utilizing the same” (priority 2009, dated 2016)

Tests used:
chronic infarct rat = experiment: Norepinephrine-induced LV diastolic dysfunction in chronic infarct rat; type: in vivo
Description: Male Wistar rats were used. After induction of anesthesia with 3% isoflurane inhalation, a polyethylene tube was inserted into the trachea. Respiration was subsequently controlled with an artificial ventilator with maintenance of anesthesia using 1.7% isoflurane. The chest was opened at the left third intercostals space and the pericardial membrane was incised. The left anterior descending coronary artery (LAD) was completely ligated with silk string (6.0, Ethicon) in the infarction group. Following this procedure, the chest was immediately closed, the inserted tube in the trachea was removed, and subjects returned to the breeding room after arousal.
Two months after operation, animals were again anesthetized and intubated as described above. A micronanometer-tipped pressure catheter (2F, Millar Instruments) was inserted into the right common carotid artery into the left ventricle (LV) and a polyethylene catheter (SP10) for solution injection was inserted from the right femoral vein to infuse the physiological salt solution (PSS) or test compound solutions. After confirming stable hemodynamics for 10 minutes, 20 μg/kg/min of norepinephrine was infused for 30 minutes in the chronic infarction group. The invention compound [III] (0.1 mg/kg/min) and PSS were infused for 10 minutes after 20 minutes of administration of norepinephrine at 16.6 μL/min for test and control groups, respectively. LV minimum diastolic pressure and LV end-diastolic pressure was counted every minute for 20 heart beats. The area of myocardial infarction (infarction size) in rats was estimated using the modified method of Sandmann et al (J Cardiovasc Pharmacol 2000; 37; 64-77.) for administration of the compound of the present invention and PSS. That is, the infarct size (%) was estimated using the followed formula: […]
Data is shown as means and standard error. The following results are shown in Table 4 (control) and Table 5 (the compound), respectively.

Male Wistar rats [1] = experiment: Comparison of heart rate, LV pressure and LV diastolic function (-dP/dt) in anesthetized rats; type: in vivo, rat; settings: for Heart rate after administration / LV diastolic function (−dP/dt) after administration / LV pressure after administration: 0.3 mg/kg/min i.v. for 5 minutes, anesthetized rats; for LV diastolic function (−dP/dt) before administration / LV pressure before administration / Heart rate before administration: baseline of the same rats before infusion; for Heart rate before administration: four rats per group
Description: Male Wistar rats weighing 280-300 g were bred. After one week, animals were anesthetized with 3% isoflurane inhalation and respiration was subsequently controlled with an artificial ventilator using 1.7% isoflurane for maintained anesthetization. A micronanometer-tipped pressure catheter (2F, Millar Instruments) was inserted from the right common carotid artery into the left ventricle (LV) and a polyethylene catheter (SP10) for solution injection was inserted from the right femoral vein and the compounds [III] and [II] (R═H) were injected. After confirming stable hemodynamics for 10 minutes, heart rate, LV pressure, and maximal negative first derivative of LV pressure (−dP/dt) were investigated continuously. Each compound [III] or [II] was infused at 0.3 mg/kg/min for 5 minutes. Four rats in each group were evaluated. The solvent used consisted of 0.05% citric acid and 5% sorbitol. Each parameter before and after 5 minutes of administration was determined for 20 heart beats.

normal rat = experiment: LV diastolic function in normal rat (LV catheter, i.v. infusion); type: in vivo; settings: 0.1 mg/kg/min i.v. infusion for 10 minutes, before administration set at 100%, mean and standard deviation
Description: (1) After breeding for 1 week, male Wistar rats were anesthetized with 3% isoflurane inhalation, followed by an insertion of a tube in the trachea and respiration subsequently controlled with an artificial ventilator using 1.7% isoflurane for maintained anesthetization. A micrometer-tipped pressure catheter (Manufactured by 2F, Millar Instruments) was inserted from the right common carotid artery into the left ventricle (LV) and a polyethylene catheter (SP10) was inserted into the right femoral vein for the compound of the present invention or physiological salt solution (PSS) injections. After confirming stable hemodynamics for 10 minutes, LV minimum diastolic pressure and LV end-diastolic pressure was counted every minute. The compound [III] (0.1 mg/kg/min) of the present invention or PSS was infused at 16.6 μL/min for 10 minutes in the test and control groups, respectively.
LV minimum diastolic pressure and LV end-diastolic pressure was counted every minute for 20 heart beats before and after administration of the compound. […] Data is shown as mean and standard deviation.

[2] = Stability of the compound at room temperature; type: physicochemical; settings: exposure to oxygen, humidity, acid and alkali at room temperature
[3] = tested on: left anterior descending coronary artery of porcine heart; experiment: Coronary relaxation of KCl-contracted porcine coronary artery strip (organ bath); settings: Sus scrofa, read-out: concentration inducing 50% of relaxation (EC50%)
Method: Porcine heart was purchased without regard of gender. The heart was carried in steep, cool Krebs-Henseleit solution, filled with 95% bubbling oxygen (O2) gas and bicarbonate (CO2) and the left anterior descending coronary artery of 2.5-3 mm diameter was removed. The artery was steeped in the same nutrition solution overnight in a refrigerator and the next day a specimen from a short strip removal in the endothelium (open ring) of width 3 mm was obtained. The specimen was hanged in 10 ml of the organ bath filled with Krebs-Henseleit solution, 95% bubbling oxygen (O2) and bicarbonate (CO2) at 37° C. One side was fixed and the other side was connected to the isometric transducer (T7-8-240, T7-30-240, Olientic) and the change of tension on the amplifier was used for tension recording. After confirming the state for 120 minutes under 1.5 g loading, KCl (40 mM) was added. When the contraction reached a maximum, KCl was washed out. This wash-out was repeated 4 times during the course of 15 minutes. After the stable contraction of KCl was obtained, KCl (30 mM) dissolved in saline was added. […] The Krebs-Henseleit solution without the compounds served as the control.

Solubility in solvents = type: physicochemical
Description: The compound of the present invention, 3-4-benzylpiperidin-1-yl)propionyl-7-methoxy-2,3,4,5-tetrahydro-1,4-benzothiazepine-1-oxide, which is produced by an oxidation of the hydrochloride salt represented by formula [V] by the oxidant, isolated by silica gel chromatography using chloroform-methanol as a solvent, followed by removed the solvent from the chloroform-methanol solution by azeotropic distillation, and finally removed by the residual solvent in argon. The purity of compound presented by formula [III], thus obtained is 90% or higher, and a molecular weight (mw) of the compound is 440.61. […] The compound has stereoisomers in the amide form, is confirmed to exist at the rate of about 2:3 in of amide parts using H-NMR analysis at room temperature.

Male Wistar rats [4] = experiment: Norepinephrine-induced hypertension in rats, LV pressure; type: in vivo, rat; settings: under norepinephrine 20 μg/kg/min
Method: Male Wistar rats weighing 260 g were anesthetized with 3% isoflurane inhalation and respiration was subsequently controlled with an artificial ventilator using 1.7% isoflurane for maintained anesthetization. A micronanometer-tipped pressure catheter (2F, Millar Instruments) was inserted from the right common carotid artery into the left ventricle (LV) and a polyethylene catheter (SP 10) for solution injection was inserted from the right femoral vein and test solutions were injected. After confirming stable hemodynamics for 10 minutes, norepinephrine (20 μg/kg/min) was infused for 10 minutes followed by the infusion of the invention compound [III] (0.1 mg/kg/min) for 10 minutes. This invention compound [III] was infused three times with intervals of 10 minutes each. LV pressure was determined for 20 heart beats before and after administration. The infusion speed of each solution was 16.6 μL/min.

[5] = chronic infarct rat, baseline before norepinephrine infusion
[6] = chronic infarct rat, norepinephrine 20 μg/kg/min infusion
[7] = chronic infarct rat under norepinephrine 20 μg/kg/min, 0.1 mg/kg/min infused 10 minutes, before administration set at 100%, mean and standard error

NC[C@H](O)c1ccc(O)c(O)c1 [Norepinephrine, norepinephrine]
LV end-diastolic pressure before administration of Norepinephrine (chronic infarct rat; [5]): 6.5 ± 0.7 mmHg | LV minimum diastolic pressure before administration of Norepinephrine (chronic infarct rat; [5]): 4.5 ± 0.8 mmHg | LV end-diastolic pressure after administration of Norepinephrine (chronic infarct rat; [6]): 25.8 ± 1.1 mmHg | LV minimum diastolic pressure after administration of Norepinephrine (chronic infarct rat; [6]): 18.5 ± 1.2 mmHg

COc1ccc2c(c1)CN(C(=O)CCN1CCC(Cc3ccccc3)CC1)CCS2 [compound [II] (R═H), 4-[3-(4-benzylpiperidin-1-yl)propionyl]-7-methoxy-2,3,4,5-tetrahydro-1,4-benzothiazepine, reference compound]
Heart rate after administration (Male Wistar rats [1]): 320.2±24.2 beat/min | LV diastolic function (−dP/dt) after administration (Male Wistar rats [1]): −5311.0±961.4 mmHg/sec | LV pressure after administration (Male Wistar rats [1]): 100.8±6.0 mmHg | LV diastolic function (−dP/dt) before administration (Male Wistar rats [1]): −5973.4±1121.3 mmHg/sec | LV pressure before administration (Male Wistar rats [1]): 103.7±4.2 mmHg | Heart rate before administration (Male Wistar rats [1]): 370.1±18.9 beat/min

COc1ccc2c(c1)CN(C(=O)CCN1CCC(Cc3ccccc3)CC1)CC[S+]2[O-] (stereo not drawn) [compound [III], 4-[3-(4-benzylpiperidin-1-yl)propionyl]-7-methoxy-2,3,4,5-tetrahydro-1,4-benzothiazepine-1-oxide]
LV end-diastolic pressure after administration (chronic infarct rat; [7]): 78.4 ± 6.6% | LV minimum diastolic pressure after administration (chronic infarct rat; [7]): 76.0 ± 5.2% | LV end-diastolic pressure after administration (normal rat): 78.4 ± 6.6% | LV minimum diastolic pressure after administration (normal rat): 76.0 ± 5.2% | Heart rate after administration (Male Wistar rats [1]): 360.9±29.1 beat/min | LV diastolic function (−dP/dt) after administration (Male Wistar rats [1]): −5982.6±520.1 mmHg/sec | LV pressure after administration (Male Wistar rats [1]): 106.3±5.5 mmHg | LV diastolic function (−dP/dt) before administration (Male Wistar rats [1]): −5631.4±395.9 mmHg/sec | LV pressure before administration (Male Wistar rats [1]): 106.0±5.8 mmHg | Heart rate before administration (Male Wistar rats [1]): 361.7±26.5 beat/min | stability [2]: stable against exposure of oxygen, humidity, acid and alkali at room temperature | EC50 [3]: 42 µM | skin irritation (Skin irritation): irritating to the skin | solubility in solvents (Solubility in solvents): easily dissolved in ethanol and dimethysulfoxide (DMSO) | LV pressure before administration (Male Wistar rats [4]; before compound infusion): 189.2±14.0 mmHg | LV pressure after administration (Male Wistar rats [4]; compound 0.1 mg/kg/min for 10 minutes, infused three times): 180.3±14.9 mmHg

COc1ccc2c(c1)CN(C(=O)CCN1CCC(Cc3ccc(O)cc3)CC1)CC[S+]2[O-] (stereo not drawn) [compound [IV], 4-{3-[4-(4-hydroxybenzyl)piperadin-1-yl]propionyl}-7-methoxy-2,3,4,5-tetrahydro-1,4-benzothiazepine-1-oxide]
EC50 [3]: 100 µM
